We go through 12 molecules from US12617793B2, “Organic electron transfer mediator and device comprising same” (I-sens, Inc., priority 2019, dated 2026).

Series [1] can be described thus: Cyclic voltammetry of organic electron-transfer mediators (oxidation reduction potential vs Ag/AgCl). The class given is physicochemical. Particulars: for Eox / Ered: pH 7.0, 2 mg/mL in water, 0.1M PBS buffer, vs Ag/AgCl.
Series [2] in a line: Stability test by pH and solvent (CV after one day of the solution; colour change). The format is physicochemical.
A short description of series [3]: Solubility depending on the solvent (seen from CV current strength). Particulars: for solubility in water: water / 0.1 M PBS aqueous buffer.
For series [4] the following is noted: compared to the Ag/AgCl reference electrode; cited from earlier work.

As for `N#Cc1cc2nc3c(=O)[nH]c(=O)nc-3n(CCCS(=O)(=O)O)c2cc1C#N` [Chemical formula 2, 3-(7,8-dicyano-2,4-dioxo-3,4-dihydrobenzo[g]pteridin-10(2H)-yl)propane-1-sulfonic acid], the “E1/2 (vs Ag/AgCl)” value is reported as −0.172 V in series [1] (0.1M PBS in H2O), −0.315 V in series [1] (0.1M TBAP in CH3CN) and 0.061 V in series [1] (0.1M TBAP in DMSO). This molecule registered an Eox in series [1] of −0.139 V. This molecule gave an Ered in series [1] of −0.229 V. The “stability in DMSO” value in series [2] (0.1M TBAP in DMSO) is reported as “changed to a different structure under DMSO”. Besides, the “stability by pH” value in series [2] (CV after one day of the solution at pH 4-9) is given as “the current value decreased under the basic condition”.
As for `N#Cc1cc2nc3c(=O)[nH]c(=O)nc-3n(Cc3ccccc3)c2cc1C#N` [Chemical formula 3, 10-benzyl-7,8-dicyanoisoalloxazine], in series [1] (0.1M TBAP in DMSO), the “E1/2 (vs Ag/AgCl)” value was −0.285 V.
Take `CC(C)(C)OC(=O)NCCCCCn1c2nc(=O)[nH]c(=O)c-2nc2cc(C#N)c(C#N)cc21` [Chemical formula 4, tert-butyl (5-(7,8-dicyano-2,4-dioxo-3,4-dihydrobenzo[g]pteridin-10(2H)-yl)pentyl)carbamate]: the “E1/2 (vs Ag/AgCl)” value in series [1] (0.1M TBAP in CH3CN) is on record as −0.330 V.
Same read-out and setting: for `CC(C)(C)OC(=O)NCCCCCCn1c2nc(=O)[nH]c(=O)c-2nc2cc(C#N)c(C#N)cc21` [Chemical formula 5, tert-butyl (6-(7,8-dicyano-2,4-dioxo-3,4-dihydrobenzo[g]pteridin-10(2H)-yl)hexyl)carbamate] the value was −0.330 V.
`N#Cc1cc2nc3c(=O)[nH]c(=O)nc-3n(CCCCCO)c2cc1C#N` [Chemical formula 6, 10-(5-hydroxypentyl)-2,4-dioxo-2,3,4,10-tetrahydrobenzo[g]pteridine-7,8-dicarbonitrile]: the “E1/2 (vs Ag/AgCl)” value in series [1] (0.1M TBAP in DMSO) was −0.325 V.
Take `N#Cc1cc2nc3c(=O)[nH]c(=O)nc-3n(CCOCCO)c2cc1C#N` [Chemical formula 7, 10-(2-(2-hydroxyethoxy)ethyl)-2,4-dioxo-2,3,4,10-tetrahydrobenzo[g]pteridine-7,8-dicarbonitrile]: the “E1/2 (vs Ag/AgCl)” value in series [1] (0.1M TBAP in DMSO) is given as −0.315 V.
In the case of `N#Cc1cc2nc3c(=O)[nH]c(=O)nc-3[nH]c2cc1C#N` [Chemical formula 8, 2,4-dioxo-2,3,4,10-tetrahydrobenzo[g]pteridine-7,8-dicarbonitrile], the “E1/2 (vs Ag/AgCl)” value in series [1] (0.1M TBAP in DMSO) is −0.494 V.
For the molecule `Cc1ccc(Cn2c3nc(=O)[nH]c(=O)c-3nc3cc(C#N)c(C#N)cc32)cc1` [Chemical formula 9, 10-(4-methylbenzyl)-2,4-dioxo-2,3,4,10-tetrahydrobenzo[g]pteridine-7,8-dicarbonitrile], in series [1] (0.1M TBAP in DMSO), the “E1/2 (vs Ag/AgCl)” value is on record as −0.296 V.
Same read-out and setting: with `COc1ccc(Cn2c3nc(=O)[nH]c(=O)c-3nc3cc(C#N)c(C#N)cc32)cc1` [Chemical formula 10, 10-(4-methoxybenzyl)-2,4-dioxo-2,3,4,10-tetrahydrobenzo[g]pteridine-7,8-dicarbonitrile] the figure was −0.298 V.
For `C=CCn1c2nc(=O)[nH]c(=O)c-2nc2cc(C#N)c(C#N)cc21` [Chemical formula 15], the “E1/2 (vs Ag/AgCl)” value in series [1] (0.1M PBS in H2O) is given as −0.196 V. Besides, in series [1], the Eox is on record as −0.120 V and the Ered is on record as −0.216 V. The solubility in water result in series [3] was “very low”.
With `N#Cc1cc2nc3c(=O)[nH]c(=O)nc-3n(CCO)c2cc1C#N` [Chemical formula 16], the “E1/2 (vs Ag/AgCl)” value in series [1] (0.1M PBS in H2O) is −0.154 V; in series [1] (0.1M PBS in H2O, listed as drawing 56), −0.153 V; in series [1] (0.1M TBAP in CH3CN), −0.319 V; in series [1] (0.1M TBAP in DMSO) it was −0.315 V. In addition, the solubility in acetonitrile entry in series [3] (0.1M TBAP in CH3CN) is reported as “very low”. Also, the solubility in water entry in series [3] is on record as “prominent”.
Turning to `Cc1cc2nc3c(=O)[nH]c(=O)nc-3n(C)c2cc1C` [flavin [or isoalloxazine]derivative], the oxidation reduction potential in series [4] is recorded as −0.46 V.
